Measured values published in US12163158B2, “Organoid and method for producing same” (priority 2017, dated 2024).

Assays:
Format in all cases: cell-based
[1] = test system: mouse ES cell-derived heart organoid; assay: Ca2+ measurement of drug responsiveness in heart organoids; conditions: 1 μM isoproterenol vs absence (control); 15-second recording; Fluo8 fluorescence; FIG. 40
Method: The heart organoids were washed twice with PBS and immersed in a 4 μM green fluorescent intracellular calcium indicator Fluo8 AM (acetoxymethyl) or Fluo8 AM/F127, freshly diluted with Tyrode's solution containing 1.8 mM Ca^2+, at 37° C. for 15 to 30 minutes. Thereafter, the heart organoids were washed twice with PBS, treated with 200 μL of Tyrode's solution, mounted, and observed with a fluorescence microscope (manufactured by Keyence Corporation). Specifically, first, Ca^2+ measurement was performed by the method described above (Ca Measurement) in the presence and absence (control) of 1 μM isoproterenol, which is an adrenergic […] agonist. A 15-second recording (movie) was taken, and image analysis was performed to detect the change in the intensity (Y-axis) of the fluorescent signal with time (X-axis).

[2] = test system: mouse ES cell-derived embryoid bodies; assay: Heart organoid formation from embryoid bodies on LN/ET gel in the presence of FGF protein; conditions: bFGF instead of FGF4; not shown in the figure
Method: For the purpose of attempting to mimic such a process of developing a heart in the living body, as shown in the lower stage of FIG. 1, first, mouse ES cells were cultured in a low-binding U-bottom 96-well plate in the absence of leukemia inhibitory factor (LIP) to obtain complete embryoid bodies (EB) (1000 to 5000 cells/embryoid body). […]

[3] = test system: human iPS cells (253G1) embryoid bodies; assay: Formation of heart and lung organoids from human iPS cells under conditions I to IV; conditions: embryoid bodies on gelated LN/ET complex; at collection (day 13 of culture or later); FIG. 49

CC(C)NCC(O)c1ccc(O)c(O)c1 (stereo not drawn) [isoproterenol] was tested, and the “change of Ca signal cycle in heart organoids” value [1] was “shorten the Ca signal cycle (tachycardia-like)”.

“bFGF: fibroblast growth factor 2 (FGF2, bFGF)” was tested, and the “production of beating heart organoid” value [2] was “successfully produced the same beating heart organoid”.

B1: condition II: additive to medium: FGF4 (30 ng/mL) (protein, UniProt P08620 31-206, looked up)
Fibroblast growth factor 4: APTAPNGTLEAELERRWESLVALSLARLPVAAQPKEAAVQSGAGDYLLGIKRLRRLYCNVGIGFHLQALPDGRIGGAHADTRDSLLELSPVERGVVSIFGVASRFFVAMSSKGKLYGSPFFTDECTFKEILLPNNYNAYESYKYPGMFIALSKNGKTKKGNRVSPTMKVTHFLPRL
With B1 the “efficiency of producing heart organoids and lung organoids (combined heart and lung, separated heart and lung)” value [3] was 62.5%.
